The test system of one assay is A549 cells. Nature of the assay: [3H]-2DG uptake assay in A549 cells. The class given is cell-based, human. Conditions: 10 min incubation with compound, mean ± s.d., n = 3. As for the experimental part: To determine which of the 17 rapafucin hits inhibited the transporter activity of GLUT1, an orthogonal glucose uptake assay using 2-deoxy-D-[3H] glucose ([3H]-2DG), a nonhydrolyzable, radioactive glucose analog, was employed. Each hit was separately incubated with A549 cells for 10 min before the amount of [3H]-2DG taken up by the cells was measured using scintillation counting. […] The effect of JW11-D2 on uptake of [3H]-2DG in human red blood cells that exclusively express GLUT1 was then determined. Helgerson and Carruthers, J. Biol. Chem. 1987, 262, 5464-5475. […] To further improve the potency of JW11-D2, a structure-activity relationship (SAR) study was performed by synthesizing 21 new analogs of JW11-D2 using different amino acid building blocks.
The inhibitory activity of compounds on glucose transport was analyzed by measuring the cell uptake of [3H]-2DG as previously described. Ulanovskaya et al., Chem. Biol. 2011, 18, 222-230. Briefly, cells were washed twice and incubated in low-glucose medium for 10 min. Cells were added drugs and incubated for another 10 min before adding [3H]-2DG. After 10 min incubation with [3H]-2DG, cells were washed twice and lysed with 0.2 N NaOH plus 0.2% SDS. The cell lysate was transferred to a new tube containing 1 mL of optiphase supermix. Glucose uptake was quantified with a scintillation counter.

For assay [1], the target named is T1, GLUT1 (Homo sapiens, UniProt P11166).
T1 construct: The full-length human SLC2A1, SLC2A3, and SLC2A4 genes were PCR amplified and inserted into pLenti6M vector 2; expressed in transfected cells
T1 sequence (P11166 1-492): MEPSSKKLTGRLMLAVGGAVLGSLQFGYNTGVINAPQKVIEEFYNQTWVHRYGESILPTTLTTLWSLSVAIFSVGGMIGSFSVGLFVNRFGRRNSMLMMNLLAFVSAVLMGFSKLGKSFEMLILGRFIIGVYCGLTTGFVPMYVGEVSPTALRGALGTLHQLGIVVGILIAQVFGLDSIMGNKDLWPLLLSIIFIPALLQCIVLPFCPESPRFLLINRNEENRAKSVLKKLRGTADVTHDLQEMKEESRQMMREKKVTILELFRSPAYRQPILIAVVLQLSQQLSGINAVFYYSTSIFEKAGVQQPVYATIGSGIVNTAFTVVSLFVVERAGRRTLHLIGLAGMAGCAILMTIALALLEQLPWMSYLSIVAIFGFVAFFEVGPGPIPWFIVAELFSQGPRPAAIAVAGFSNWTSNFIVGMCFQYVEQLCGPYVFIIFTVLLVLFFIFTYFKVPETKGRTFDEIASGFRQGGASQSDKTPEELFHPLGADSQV
Nature of the assay: rapafucin 2D microarray screen with GLUT1-containing cell lysate. The class given is binding. Conditions: signal-to-background ratio, 2D surface, same lysate and conditions. The text has this: (§1) Once stock solutions of the rapafucin library were arrayed on the 2D or 3D surface and most of solvent carrier was evaporated, the crosslinking reaction was initiated by irradiating the surfaces with 365-nm wavelength UV light. Kawatani and Osada, Medchemcomm 2014, 5, 277-287. […] To screen for GLUT1-interacting rapafucins, GLUT1 was stably overexpressed in HEK293T cells and generated cell lysates containing detergent-solubilized recombinant GLUT1 (FIG. 10). The GLUT1-containing cell lysate was then incubated on both 2D and 3D rapafucin microarrays. After washing the slides to remove unbound proteins, the bound GLUT1 protein was detected with anti-GLUT1 antibodies, followed by visualization with Cy5-labeled secondary antibodies using a microarray scanner. Rapafucins were scored as positive hits when the corresponding SBR was greater than 3. Based on this criterion, a total of 17 rapafucin hits and one positive control BAY-876, a specific GLUT1 inhibitor, Siebeneicher et al., ChemMedChem 2016, 11, 2261-2271, were identified on the 3D rapafucin microarray. In contrast, only one hit (WL13-F11, also among the 17 hits identified from the 3D rapafucin microarray) was identified on the 2D rapafucin microarray (Table 1, FIG. 11).
(§2) In the optimization experiments, the slides were incubated with 50 nM purified recombinant FKBP12 for 1 hour, while in the GLUT1 screening, 10 mg/mL of cell lysate containing DDM-solubilized GLUT1 from GLUT1 overexpressed HEK293T was incubated for 1 hour. Successively, primary antibody and CY5 labeled secondary antibody were added for 1 hour. The chips were washed in buffer A for 5 mins 3 times after the sample and antibodies incubation. After centrifugation, the dried chips were scanned by a microarray scanner (Genepix, US) at 635-nm wavelength. The final result was analyzed by GenePix software.

Assay [2] has as its target T1, GLUT1. The assay can be described thus: rapafucin 3D microarray screen with GLUT1-containing cell lysate. The class given is binding. The conditions noted are these: signal-to-background ratio, 3D surface, lysate of GLUT1-overexpressing HEK293T; hit if SBR > 3.
Excerpt: as §1
The amine substrates (Arrayit, SMM) were immerged in a mixture of 2-bromoisobutyryl bromide (BIBB, 0.1 mM, as initiator) and propionyl bromide (10 mM, as horizontal spacer) with triethylamine (15 mM) in DCM for 4 hours. A degassed polymerization reaction mixture, containing copper (II) chloride dihydrate (CuCl2, 4 mmol), 2,2′-bipyridine (2 mmol), 75 mmol monomers mixture of 2-(dimethylamino)ethyl methacrylate (DMAEMA) and poly(ethylene glycol) methacrylate (PEGMA Mn 360) in 500 mL Milli-Q/MeOH, was mixed with freshly made ascorbic acid (4 mmol). The mixture was applied to 50 slides for 6 hours under the argon atmosphere for the surface-initiated polymerization. A gradient ratio of PEGMA and DMAEMA was set, including 10:0, 8:2, 5:5, 2:8 and 0:10 for an optimization purpose. The terminals of the brushes were further functionalized by N,N′-disuccinimidyl carbonate (DSC, 10 mM) and 4-dimethylaminopyridine (DMAP,10 mM) in DMF overnight to form succinimidyl carbonate intermediate, and, successively, diazirine linker 1 (10 mM) and N,Ndiisopropylethylamine (DIPEA, 50 mM) in DMF for 2 hours to couple the photoaffinity linker in dark at room temperature. At the end, the substrates were immerged in a 50 mM ethanolamine in DMF to block the residual carboxylic moiety. The slides were thoroughly washed by DMF, EtOH and DCM and dried in a fuming cupboard and ready for spotting.
10 mM of rapafucins in DMSO from the library were spotted onto the slides with a high-precision microarrayer (Nanoprint, Arrayit, CA) for a desired pattern in dark, which was loaded with 16 100-μm diameter micro-spotting pins. The pin heads were thoroughly washed and sonicated in ethanol and dried for 4 times under a compassed air between each sample loading. After overnight evaporation, the slides were exposed to 365-nm wavelength UV irradiation for 4 J/cm^2 by CL-1000L UV crosslinker (UVP, CA) for rapafucins covalent immobilization. The slides were ultrasonic cleaned successively in DCM, MeOH and Milli-Q water and stored in a −20° C. freezer.
as §2

Regarding `COc1ccc(CCC2OC(=O)C3CCCCN3C(=O)C(=O)C(C)(C)COC(=O)C=CCCN(C)C(=O)CNC(=O)C(CC(C)C)N(C)C(=O)C(Cc3ccccc3)NC(=O)C(CC(C)C)N(C)C(=O)CCC(=O)Nc3cccc2c3)cc1OC` (centres unmarked) [JW11-D2-9], the IC50 in the assay on A549 cells is over 3 µM.

For the compound `CCCCC1C(=O)NCC(=O)N(C)CCC=CC(=O)OCC(C)(C)C(=O)C(=O)N2CCCCC2C(=O)OC(CCc2ccc(OC)c(OC)c2)c2cccc(c2)NC(=O)CCC(=O)N(C)C(CC(C)C)C(=O)NC(Cc2ccccc2)C(=O)N1C` (centres unmarked) [JW11-D2-7], the IC50 in the assay with A549 cells was over 3 µM.

Regarding `CCC(C)C1C(=O)NCC(=O)N(C)CCC=CC(=O)OCC(C)(C)C(=O)C(=O)N2CCCCC2C(=O)OC(CCc2ccc(OC)c(OC)c2)c2cccc(c2)NC(=O)CCC(=O)N(C)C(CC(C)C)C(=O)NC(Cc2ccc(O)cc2)C(=O)N1C` (centres unmarked) [JW11-D2-13], the IC50 with A549 cells was over 3 µM.

For the compound `CCCCC1C(=O)NC(Cc2ccccc2)C(=O)N(C)C(C(C)CC)C(=O)NCC(=O)N(C)CCC=CC(=O)OCC(C)(C)C(=O)C(=O)N2CCCCC2C(=O)OC(CCc2ccc(OC)c(OC)c2)c2cccc(c2)NC(=O)CCC(=O)N1C` (centres unmarked) [JW11-D2-19], the IC50 with A549 cells was over 3 µM.

For the compound `CCCC[C@H]1C(=O)N[C@@H](Cc2ccccc2)C(=O)N(C)CCC=CC(=O)OCC(C)(C)C(=O)C(=O)N2CCCC[C@H]2C(=O)O[C@H](CCc2ccc(OC)c(OC)c2)c2cccc(c2)NC(=O)CCC(=O)N(C)[C@H](Cc2ccccc2)C(=O)N[C@@H](Cc2ccc(F)cc2)C(=O)N1C` [HP05-A9], in the assay on A549 cells, the IC50 was over 3 µM. Further, on GLUT1 [1], the “2D SBR” value is under 3.0. For the same compound, the “3D SBR” value on GLUT1 [2] is on record as 3.4 ± 1.4.

Consider `CCC(C)C1C(=O)N2CCCC2C(=O)N(C)CCC=CC(=O)OCC(C)(C)C(=O)C(=O)N2CCCCC2C(=O)OC(CCc2ccc(OC)c(OC)c2)c2cccc(c2)NC(=O)CCC(=O)N(C)C(CC(C)C)C(=O)NC(Cc2ccccc2)C(=O)N1C` (centres unmarked) [JW11-D2-2], for which the half-inhibitory concentration (IC50) with A549 cells is over 3 µM.

On to `COc1ccc(CC[C@H]2OC(=O)[C@@H]3CCCCN3C(=O)C(=O)C(C)(C)COC(=O)C=CCCN(C)C(=O)CNC(=O)CN(C)C(=O)[C@H](Cc3ccc(O)cc3)NC(=O)[C@@H](Cc3ccccc3)N(C)C(=O)COc3cccc2c3)cc1OC` [WL03-G11], for which the concentration for half-maximal inhibition (IC50) in the assay on A549 cells is over 3 µM. At GLUT1 [1], the “2D SBR” value was under 3.0. Further, at GLUT1 [2], the “3D SBR” value is 5.1 ± 0.7.

Take `CCC(C)C1C(=O)NC(Cc2ccccc2)C(=O)N(C)C(C(C)CC)C(=O)NCC(=O)N(C)CCC=CC(=O)OCC(C)(C)C(=O)C(=O)N2CCCCC2C(=O)OC(CCc2ccc(OC)c(OC)c2)c2cccc(c2)NC(=O)CCC(=O)N1C` (centres unmarked) [JW11-D2-17]: in the assay on A549 cells, the IC50 is over 3 µM.

For the compound `CCC(C)C1C(=O)NCC(=O)N(C)CCC=CC(=O)OCC(C)(C)C(=O)C(=O)N2CCCCC2C(=O)OC(CCc2ccc(OC)c(OC)c2)c2cccc(c2)NC(=O)CCC(=O)NC(CC(C)C)C(=O)NC(Cc2ccccc2)C(=O)N1C` (centres unmarked) [JW11-D2-16], in the assay with A549 cells, the IC50 is over 3 µM.

In the case of `CCC(C)C1C(=O)NCC(=O)N(C)CCC=CC(=O)OCC(C)(C)C(=O)C(=O)N2CCCCC2C(=O)OC(CCc2ccc(OC)c(OC)c2)c2cccc(c2)NC(=O)CCC(=O)N(C)C(CC(C)C)C(=O)NC(CCc2ccccc2)C(=O)N1C` (centres unmarked) [JW11-D2-10], the IC50 in the assay with A549 cells is over 3 µM.

In the case of `CCC(C)C1C(=O)NCC(=O)N(C)CCC=CC(=O)OCC(C)(C)C(=O)C(=O)N2CCCCC2C(=O)OC(CCc2ccc(OC)c(OC)c2)c2cccc(c2)NC(=O)CCC(=O)N(C)C(CC(C)C)C(=O)NC(CC(C)C)C(=O)N1C` (centres unmarked) [JW11-D2-15], the IC50 with A549 cells is over 3 µM.

For the compound `CCCC1C(=O)NC(Cc2ccccc2)C(=O)N(C)C(C(C)CC)C(=O)NCC(=O)N(C)CCC=CC(=O)OCC(C)(C)C(=O)C(=O)N2CCCCC2C(=O)OC(CCc2ccc(OC)c(OC)c2)c2cccc(c2)NC(=O)CCC(=O)N1C` (centres unmarked) [JW11-D2-18], the IC50 in the assay on A549 cells is over 3 µM.

Take `COc1ccc(CCC2OC(=O)C3CCCCN3C(=O)C(=O)C(C)(C)COC(=O)C=CCCN(C)C(=O)CNC(=O)C(C(C)C)N(C)C(=O)C(Cc3ccccc3)NC(=O)C(CC(C)C)N(C)C(=O)CCC(=O)Nc3cccc2c3)cc1OC` (centres unmarked) [JW11-D2-4]: the IC50 with A549 cells was 0.0302 ± 0.0023 µM.

In the case of `CCCC1C(=O)NCC(=O)N(C)CCC=CC(=O)OCC(C)(C)C(=O)C(=O)N2CCCCC2C(=O)OC(CCc2ccc(OC)c(OC)c2)c2cccc(c2)NC(=O)CCC(=O)N(C)C(CC(C)C)C(=O)NC(Cc2ccccc2)C(=O)N1C` (centres unmarked) [JW11-D2-8], in the assay on A549 cells, the IC50 is over 3 µM.

With `CCC(C)C1C(=O)NCC(=O)N(C)CCC=CC(=O)OCC(C)(C)C(=O)C(=O)N2CCCCC2C(=O)OC(CCc2ccc(OC)c(OC)c2)c2cccc(c2)NC(=O)CCC(=O)N(C)C(C(C)C)C(=O)NC(Cc2ccccc2)C(=O)N1C` (centres unmarked) [JW11-D2-20], the IC50 in the assay on A549 cells was determined as 0.0623 ± 0.0051 µM.

For `CCC(C)C1C(=O)N(C)CC(=O)N(C)CCC=CC(=O)OCC(C)(C)C(=O)C(=O)N2CCCCC2C(=O)OC(CCc2ccc(OC)c(OC)c2)c2cccc(c2)NC(=O)CCC(=O)N(C)C(CC(C)C)C(=O)NC(Cc2ccccc2)C(=O)N1C` (centres unmarked) [JW11-D2-1], in the assay on A549 cells, the IC50 is over 3 µM.

As for `CCC(C)C1C(=O)NCC(=O)N(C)CCC=CC(=O)OCC(C)(C)C(=O)C(=O)N2CCCCC2C(=O)OC(CCc2ccc(OC)c(OC)c2)c2cccc(c2)NC(=O)CCC(=O)N(C)C(CC(C)C)C(=O)N(C)C(Cc2ccccc2)C(=O)N1C` (centres unmarked) [JW11-D2-14], in the assay with A549 cells, the concentration for half-maximal inhibition (IC50) turned out to be 0.0385 ± 0.0047 µM.

Take `CCC(C)C1C(=O)NCC(=O)N(C)CCC=CC(=O)OCC(C)(C)C(=O)C(=O)N2CCCCC2C(=O)OC(CCc2ccc(OC)c(OC)c2)c2cccc(c2)NC(=O)CCC(=O)N(C)C(Cc2ccccc2)C(=O)NC(Cc2ccccc2)C(=O)N1C` (centres unmarked) [JW11-D2-21]: the IC50 in the assay with A549 cells was over 3 µM.

As to `CCC(C)C1C(=O)N2CCCC2C(=O)N(C)CCC=CC(=O)OCC(C)(C)C(=O)C(=O)N2CCCCC2C(=O)OC(CCc2ccc(OC)c(OC)c2)c2cccc(c2)NC(=O)CCC(=O)N(C)C(CC(C)C)C(=O)NC(Cc2ccccc2)C(=O)N1C` (centres unmarked) [JW11-D2-3], in the assay on A549 cells, the IC50 was over 3 µM.
